Measured values from US20200261534A1, “NEW TREATMENTS OF MULTIPLE MYELOMA” (priority 2017, published 2020).

Legend:
MM1S cells = experiment: Subcutaneous xenograft model, in vivo synergy of S09 drug combinations; design: species or system CB17-SCID immunosuppressed mice; conditions: MM1S s.c. xenograft, CB17-SCID mice; for Tumor volume: i.p.: B 0.5, C 50, D 0.5 mg/kg days 1 and 4, S09 4 mg/kg each 12 hours
Experimental: CB17-SCID immunosuppressed mice (female) of 6-7 weeks old housed and handled in a pathogen-free zone. They were purchased from Janvier Labs (France). All experiments were carried out within the facilities of the University of Salamanca (Spain).
Control: Medium (PBS), intraperitoneally (i.p.), each 12 hours on days 1 to 5.
Treatment Groups: • Monotherapy: • Bortezomib 0.5 mg/kg i.p. on days 1 and 4. • Cyclophosphamide 50 mg/kg i.p. on days 1 and 4 • Dexamethasone 0.5 mg/kg i.p. on days 1 and 4 • S09 4 mg/kg i.p. each 12 hours on days 1 to 7 • Double combinations: • Bortezomib 0.5 mg/kg i.p. on days 1 and 4+S09 4 mg/kg i.p. each 12 hours on days 1 to 7 • Cyclophosphamide 50 mg/kg i.p. on days 1 and 4+S09 4 mg/kg i.p. each 12 hours on days 1 to 7 • Dexamethasone 0.5 mg/kg i.p. on days 1 and 4+S09 4 mg/kg i.p. each 12 hours on days 1 to 7 • Bortezomib 0.5 mg/kg i.p. on days 1 and 4+Cyclophosphamide 50 mg/kg i.p. on days 1 and 4 • Cyclophosphamide 50 mg/kg i.p. on days 1 and 4+Dexamethasone 0.5 mg/kg i.p. on days 1 and 4 • Dexamethasone 0.5 mg/kg i.p. on days 1 and 4+Bortezomib 0.5 mg/kg i.p. on days 1 and 4 • Triple combinations: • Bortezomib 0.5 mg/kg i.p. on days 1 and 4+Dexamethasone 0.5 mg/kg i.p. on days 1 and 4+S09 4 mg/kg i.p. each 12 hours on days 1 to 7 • Cyclophosphamide 50 mg/kg i.p. on days 1 and 4+Dexamethasone 0.5 mg/kg i.p. on days 1 and 4+S09 4 mg/kg i.p. each 12 hours on days 1 to 7
Mice were shaved on the right flank and anesthetized by inhalation to decrease their mobility, were inoculated subcutaneously with 3×10^6 MM1S cells in 50 μl of RPMI-1640 medium and 50 μl of Corning @ Matrigel® Basement Membrane Matrix. […] This was estimated by measurements with a caliper of the two tumor diameters and using the following formula of a spheroid: […]
Where a and b correspond to the longest and shortest diameter, respectively. Tumor volume was monitored three times per week.
The treatment endpoint was determined by the value of tumor volume in the mouse (a range of 2000-2200 mm3).

[1] = Growth inhibition activity, comparative test of Example 3 (cell lines not given); format: cell-based; conditions: Example 3, comparison with stapled versions
Excerpt: Following the same protocol as the one disclosed in previous sections, the following activity data were obtained: […]

[2] = day of treatment 5, relative to day 1
[3] = day of treatment 10, relative to day 1
[4] = day of treatment 15, relative to day 1
[5] = day of treatment 24, relative to day 1

Molecule | normalized tumor volume percentage (%) (MM1S cells; day of treatment 1 (= 100)) | Tumor volume (MM1S cells; day of treatment 1) [mm^3] | normalized tumor volume percentage (%) (MM1S cells; [2]) | Tumor volume (MM1S cells; day of treatment 5) [mm^3] | normalized tumor volume percentage (%) (MM1S cells; [3]) | Tumor volume (MM1S cells; day of treatment 10) [mm^3] | normalized tumor volume percentage (%) (MM1S cells; [4]) | Tumor volume (MM1S cells; day of treatment 15) [mm^3] | normalized tumor volume percentage (%) (MM1S cells; [5]) | Tumor volume (MM1S cells; day of treatment 24) [mm^3] | growth inhibition activity [1]
O=P1(N(CCCl)CCCl)NCCCO1 (stereo not shown) [C, cyclophosphamide] | 100.00 | 120.75 | 156.92 | 189.48 | 247.48 | 298.83 | 552.57 | 667.23 | 1252.21 | 1512.04 | –
C[C@@H]1C[C@H]2[C@@H]3CCC4=CC(=O)C=C[C@]4(C)[C@@]3(F)[C@@H](O)C[C@]2(C)[C@@]1(O)C(=O)CO [D, dexamethasone] | 100.00 | 120.35 | 110.62 | 133.13 | 270.68 | 325.76 | 524.90 | 631.72 | 1206.21 | 1451.67 | –
CC(C)C[C@H](NC(=O)[C@H](Cc1ccccc1)NC(=O)c1cnccn1)B(O)O [B, bortezomib] | 100.00 | 119.96 | 138.36 | 165.98 | 230.48 | 276.48 | 470.62 | 564.56 | 1410.31 | 1691.81 | –
Pro-Lys-Val-Val-11e-Leu-Lys-Lys-Ala-Thr-Ala-Tyr-Ile (PKVVILKKATAYI; wild type sequence) [SEQ ID NO: 11] | – | – | – | – | – | – | – | – | – | – | does not present growth inhibition activity
